Data published in patent publication US20250206724A1, “SUBSTITUTED 3-AMINO INDAZOLE DERIVATIVES AS KINASE INHIBITORS” (NERVIANO MEDICAL SCIENCES S.R.L., priority 2022, published 2025).
Counter-ions that a name gives are not always drawn. Like-named read-outs stand apart in the source and are kept apart here.

Legend:
CDK11A = target: T1, CDK11A (Homo sapiens, UniProt Q9UQ88); settings: displacement of SNS-032-Atto590 probe (0.002 μM) from CDK11A-p58 (0.032 uM), fluorescence polarization;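 note: compound preincubated 30 min with CDK11A-p58, then probe added and polarization (mP) read 15 min later, 0% displacement is probe plus enzyme, 100% is probe alone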
T1 sequence (Q9UQ88 346-783): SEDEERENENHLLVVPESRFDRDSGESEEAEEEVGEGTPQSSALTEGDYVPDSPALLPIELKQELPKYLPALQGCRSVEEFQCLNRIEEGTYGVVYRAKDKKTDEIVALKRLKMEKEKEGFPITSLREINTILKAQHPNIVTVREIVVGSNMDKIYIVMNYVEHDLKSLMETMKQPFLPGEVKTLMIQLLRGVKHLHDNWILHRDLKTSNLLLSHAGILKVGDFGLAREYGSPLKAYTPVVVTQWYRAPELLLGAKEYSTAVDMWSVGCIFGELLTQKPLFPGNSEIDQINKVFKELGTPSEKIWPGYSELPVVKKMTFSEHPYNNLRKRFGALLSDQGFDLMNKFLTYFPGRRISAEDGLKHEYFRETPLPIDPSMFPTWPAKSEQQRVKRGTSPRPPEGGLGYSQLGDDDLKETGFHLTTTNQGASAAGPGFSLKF

EoL-1-cell = test: Cytotoxicity assay (CellTiterGlo, 72 hours treatment), EoL-1; type: cell-based, Human; settings: EoL-1 acute myeloid leukemia cells, ATP determination, read-out: Cell line IC50 EoL-1-cell
Protocol: (§1) Cell Lines and Cell Cultures
(§2) All cell lines were seeded at a density ranging from 2,400 to 8,000 cells/well in 384-well cell culture microplates and incubated at […] in a humidified 5% […] atmosphere 24 hours before treatment. Compound solutions were directly administered to the cells using the D300e digital dispenser (Tecan) to obtain scalar final concentrations ranging from 5 nM to 10 μM (duplicate wells for each point), with 80 uL final volume per well. The final DMSO concentration in test wells was adjusted to 0.1% (v/v); control wells were mock-treated and contained the same final concentration of DMSO.
(§3) Cell viability was determined after 72 hours treatment by ATP determination in each test well with a luciferase-based detection system (CellTiterGlo, Promega, Madison, WI, USA), following manufacturer's instructions. The intensity of emitted light was measured using an EnVision reader (PerkinElmer, Waltham, MA USA) and expressed as RLU. One to three independent experiments were performed for each cell line, as indicated.
(§4) Analysis of Antiproliferative Data
(§5) Cell growth inhibitory activity was evaluated comparing treated versus control data using the Assay Explorer software suite (Symix Technologies Inc.). IC50s values were calculated by sigmoidal fitting interpolation using the following quadriparametric Hill equation: […]
(§6) The Top, Bottom and Hill slope parameters were left free to assume any value, but only curves whose Hill slope had values between 0.5 and 4 were arbitrarily considered acceptable and used to calculate the average IC50s. Curves too steep (HillSlope≥4) or too slight (HillSlope≤0.5) were not included (Table C).

MOLM-13 = test: Cytotoxicity assay (CellTiterGlo, 72 hours treatment), MOLM-13; type: cell-based, Human; settings: MOLM-13 acute myeloid leukemia cells, ATP determination, read-out: Cell line IC50 MOLM-13
Protocol: as §1, §2, §3, §4, §5, §6

NB-4 = test: Cytotoxicity assay (CellTiterGlo, 72 hours treatment), NB-4; type: cell-based, Human; settings: NB-4 acute myeloid leukemia cells, ATP determination, read-out: Cell line IC50 NB-4
Protocol: as §1, §2, §3, §4, §5, §6

Row | Compound | DC50 (CDK11A) [nM] | IC50 (EoL-1-cell; Homo sapiens, EOL1, 72 h) [nM] | IC50 (MOLM-13; Homo sapiens, MOLM-13, 72 h) [nM] | IC50 (NB-4; Homo sapiens, NB-4, 72 h) [nM] | IC50 (EoL-1-cell) [nM] | IC50 (MOLM-13) [nM] | IC50 (NB-4) [nM]
1 | N#Cc1ccc(Cl)c(-c2ccc3[nH]nc(NC(=O)C4CCC5(CCCC5)NC4)c3c2)c1 (stereo not drawn) [compound 185, N-[5-(2-Chloro-5-cyanophenyl)-1H-indazol-3-yl]-6-azaspiro[4.5]decane-8-carboxamide hydrochloride] | 21 | 294 | 261 | 204 |  |  | 
2 | O=C(Nc1n[nH]c2ccc(-c3c(Cl)cccc3Cl)cc12)C1CCCNC1 (stereo not drawn) [compound 157, N-[5-(2,6-Dichlorophenyl)-1H-indazol-3-yl]piperidine-3-carboxamide hydrochloride] | 59 | 590 | 521 | 512 |  |  | 
3 | O=C(Nc1n[nH]c2ccc(-c3c(F)cccc3Cl)cc12)C1CCCNC1 (stereo not drawn) [compound 165, N-[5-(2-Chloro-6-fluorophenyl)-1H-indazol-3-yl]piperidine-3-carboxamide hydrochloride] | 36 | 484 | 463 | 629 |  |  | 
4 | N#Cc1ccc(Cl)c(-c2ccc3[nH]nc(NC(=O)C4CCC5(CCCCC5)NC4)c3c2)c1 (stereo not drawn) [compound 186, N-[5-(2-Chloro-5-cyanophenyl)-1H-indazol-3-yl]-1-azaspiro[5.5]undecane-3-carboxamide hydrochloride] | 65 | 315 | 303 | 365 |  |  | 
5 | CC1(C)CCC(C(=O)Nc2n[nH]c3ccc(-c4cc(C#N)ccc4Cl)cc23)CN1 (stereo not drawn) [compound 184, N-[5-(2-Chloro-5-cyanophenyl)-1H-indazol-3-yl]-6,6-dimethylpiperidine-3-carboxamide hydrochloride] | 29 | 160 | 164 | 151 |  |  | 

The next lines start with results.

Row | DC50 (CDK11A) [nM] | Compound | IC50 (EoL-1-cell; Homo sapiens, EOL1, 72 h) [nM] | IC50 (MOLM-13; Homo sapiens, MOLM-13, 72 h) [nM] | IC50 (NB-4; Homo sapiens, NB-4, 72 h) [nM] | IC50 (EoL-1-cell) [nM] | IC50 (MOLM-13) [nM] | IC50 (NB-4) [nM]
6 | 31 | N#Cc1ccc(F)c(-c2ccc3[nH]nc(NC(=O)[C@@H]4CCCNC4)c3c2)c1 [cpd 25, (3R)-N-[5-(5-Cyano-2-fluorophenyl)-1H-indazol-3-yl]piperidine-3-carboxamide hydrochloride] | 1720 | 2860 | 1660 |  |  | 
7 | 23 | N#Cc1ccc(Cl)c(-c2ccc3[nH]nc(NC(=O)[C@@H]4CCC5(CCCCC5)NC4)c3c2)c1 (single isomer, unassigned) [compound 206, (3+)-N-[5-(2-Chloro-5-cyanophenyl)-1H-indazol-3-yl]-1-azaspiro[5.5]undecane-3-carboxamide] | 180 | 194 | 205 |  |  | 
8 | 15 | CC1(C)CCC(C(=O)Nc2n[nH]c3ccc(-c4cc(C#N)ccc4Cl)cc23)CN1 (single isomer, unassigned; (+)) [compound 202, (+)-N-[5-(2-Chloro-5-cyanophenyl)-1H-indazol-3-yl]-6,6-dimethylpiperidine-3-carboxamide] |  |  |  | 73 | 77 | 56
9 | 43 | Cc1ccc(C#N)cc1-c1ccc2[nH]nc(NC(=O)[C@@H]3CCCNC3)c2c1 [cpd 24, (3R)-N-[5-(5-Cyano-2-methylphenyl)-1H-indazol-3-yl]piperidine-3-carboxamide hydrochloride] | 423 | 563 | 595 |  |  | 
